Measured values taken from patent publication EP0773292A1, “Immortalised embryonic hippocampal cells and their use” (BAYER AG, priority 1995, dated 1997).
Like-named read-outs stand apart in the source and are kept apart here.

Assays:
Type in all cases: cell-based, murine
HC e/n XVB cells = experiment: Electrophysiology: whole-cell patch-clamp, ligand-activated currents; settings: for ligand-activated currents: membrane potential clamped to -70mV; for ligand induced inward currents: differentiated HC e/n XVB cells, AMPA 100µM, NMDA, kainate, glutamate 1mM
Experimental: (§1) Electrophysiological setup: Membrane currents were measured with the patch-clamp technique in the whole-cell recording configuration (Hamill et al. 1981, Pfluegers Arch. 391:85-100). Current signals were amplified with conventional electronics (EPC-9 amplifier, HEKA Elektronik GmbH, Lambrecht, Germany), filtered at 10kHz, and sampled at 5 kHz by an interface connected to an IBM AT-compatible computer system, which also served as a stimulus generator.
(§2) Solutions and electrodes: The standard bathing solution contained (in mM): Nacl 150, KCL 5, MgCl2 1.8, HEPES 5, and glucose 10. In some experiments an equimolar amount of NaCl was replaced by 5mM BaCl2. Recording pipettes had resistances about 5MΩ (Hilgenberg, Malsfeld, Germany). The pipettes contained (in mM): KCL 140, CaCl2 0.5, EGTA 5, MgCl2 2, and HEPES 10. The pH was adjusted to 7.4. In some experiments the pipette solution was designed to minimize the contribution of voltage-activated currents. In this case, investigating the ligand-activated currents, the pipette solution contained (in mM): CsCl 140, EGTA 10, and HEPES 10.
(§3) Ligands were dissolved in the extracellular saline solution and applied via an U-tube application system. To record ligand-induced currents, the membrane potential was clamped to -70mV. For measurements of voltage-activated currents, cells were held at -70mV and every second the membrane was stepped through a 50 msec. de- or hyperpolarising test pulse to a potential between -170 and +20 mV.

HNMMCV13.1.F = experiment: Ca2+-imaging (Fura-2), rise in intracellular calcium; settings: for transient rise in intracellular calcium concentration: HNMMCV13.1.F, glutamate 10µM to 10 mM, AMPA, kainic acid, serotonine, dopamine, carbachol up to 1mM, NMDA up to 500µM
Experimental: (§4) Fluorescent Probe: Dynamic changes of intracellular calcium concentration were measured using the Fura-2 fluorescent probe (Roe et al. 1990, Cell Calcium 11:63-73). This fluorescent dye was chosen because of its selectivity, high quantum yield and extinction co-efficient. Fura-2 permeates the living cell as a acetoxymethylester and becomes trapped within the cell after hydrolysis by intracellular esterases. The calcium-sensitive free acid of Fura-2 is able to bind to calcium ions inside the cell. Fura-2 has an excitation maximum at 380 nm and the Fura2/calcium complex peaks at 340 nm. A change in intracellular calcium concentration was calculated by recording fluorescent video images at wavelengths of 340nm and 380nm excitation and 510nm emission and by dividing the grey values of the digitized video images of 380nm from 340nm.
(§5) Loading cells with Fura-2: A stock solution with 2mM Fura-2-acetoxymethylester in dimethylsulfoxide (DMSO) was diluted to 5-10 µM with serum free Minimal Essential Medium (MEM, Gibco) containing 1.5% bovine serum albumin and 5 mM calcium chloride. The cells were incubated in a Falcon 96 well plate for 45-60 minutes at 37°C. Subsequently the cells were washed twice in N-(2-Hydroxyethyl)piperazine-N'-(2-ethanesulfonic acid) (HEPES, 5mM) buffered Tyrode solution (HEPES buffered salt solution containing 130 mM NaCl, 5 mM KCl, 2 mM CaCl2, 1 mM MgCl2, 5mM NaHCO3, 11 mM Glucose).
(§6) Imaging procedure: 100 µl of Tyrode buffer was added to the plate wells and the cells were sequencially exposed to light at 340 nm and 380 nm under a fluorescent microscope (Nikon Diaphot). The exposition time was 100 ms. A series of video images at 3 second intervals was acquired and stored as digitised pictures in the image boards of an image analysis computer (Leica, Quantimet 570). After the acquisition of 8 images the test substances were applied. The grey levels of the cells, which correspond to the fluorescence intensity, were measured in the recorded video images. The ratio was determined by dividing the measured grey levels of the "380 nm images" by the grey levels of the "340 nm images" either from averaged images or from individual cells. For averaged results, the grey levels were measured over the whole images.
(§7) The cells were loaded with Fura 2/AM between day 3 and 7 in culture. A number of agonists were tested for their ability to activate specific receptors on the cell surface which leads to a rise in intracellular calcium. The rise in calcium concentration in the cytoplasm can occur after activation of specific calcium channels in the cell membrane, after activation of neurotransmitter receptors directly coupled to ion channels that are permeable to calcium ions (i.e. NMDA or AMPA type glutamate receptors), or by activation of receptors, which propagate the signal through the activation of specific G-proteins, which regulate the activity of different enzymes in the interior of the cell (Connor, Cell Calcium 14 (1993), 185-200; Crouch and Hendry, Medical Res. Rev. 13 (1993), 105-123). The activation of phospholipase C generates the second messengers diacylglycerol and inositoltriphosphate from phospholipids in the cell membrane. The binding of inositoltriphosphate to receptors localised on internal vesicles which store calcium ions leads to a transient rise in the concentration of calcium ions in the cytoplasm (Berridge, M.J. 1993, Nature 361: 315-325).

HNMMCV11.2.0 = experiment: as above; settings: HNMMCV11.2.0; glutamate 10µM to 10 mM, AMPA, kainic acid, serotonine, dopamine, carbachol up to 1mM, NMDA up to 500µM
Experimental: as §4, §5, §6, §7

HC e/n XV.B cells = experiment: as above
Experimental: as §4, §5, §6, §7

HNMMCV14.1.A [1] = experiment: as above; settings: HNMMCV14.1.A; glutamate 10µM to 10 mM, AMPA, kainic acid, serotonine, dopamine, carbachol up to 1mM, NMDA up to 500µM
Experimental: as §4, §5, §6, §7

HNMMCV13.1.E = experiment: as above; settings: HNMMCV13.1.E; glutamate 10µM to 10 mM, AMPA, kainic acid, serotonine, dopamine, carbachol up to 1mM, NMDA up to 500µM
Experimental: as §4, §5, §6, §7

HNMMCV14.1.A [2] = experiment: Electrophysiology: whole-cell patch-clamp, ligand-activated currents; settings: 14.1.A; membrane potential clamped to -70mV
Experimental: as §1, §2, §3

[3] = system: metabotropic glutamate receptor(s) (mGluR) expressed by HNMMCV14.1A cells; experiment: Second messenger: phosphoinositide hydrolysis, accumulation of 3H-inositol phosphates
Experimental: Phosphoinositide hydrolysis was determined by measuring the accumulation of ^3H-inositol phosphates. The cells were plated in 48-well plates (Costar) at a density of 10000 cells per well and incubated for 4-5 days at 37°C, 7% CO2. Then the cells were labeled by incubation with 4 µCi of myo-2-^3H-inositol per ml medium (specific activity: […]: Amersham). After 24 h LiCl (10 mM final concentration) was added to the cells for 1 h. Agonists were then added at the concentrations indicated. The incubation was stopped after 1 h by replacing the medium with 200 µl ice-cold methanol. 400 µl of destilled water was added and the sample was directly applied to AG-1X8 ion exchange columns (AG-1X8 resin: BioRad). Free inositol and glycerophosphoryl-inositol were washed away with 16 ml destilled water followed by 10 ml 5 mM disodium-tetraborate, 60 mM sodium formate. Total ^3H-inositol phosphates (IP1, IP2, IP3) were eluted with 7 ml of 100 mM formic acid, 1 M ammonium formate. Radioactivity of the eluted ^3H-inositol phosphates was determined by liquid scintillation counting after addition of 13 ml liquid scintillation cocktail (Ultima Gold: Canberra Packard). Measurements were performed in triplicates for each experimental point. Untreated controls were set as 100% and the other values calculated in relation to this.
The columns were prepared as follows: 1 ml pipet tips were filled with one glass bead (Roth) per tip before adding 500 µl AG-1X8 resin. The resin was compressed with air and 270 µl seasand was applied. Until use they were stored at 4°C.

[4] = HC e/n XV.B cells, state of differentiation not given, up to 1mM
[5] = differentiated HC e/n XV.B cells
[6] = HNMMCV14.1A cells, result in words

Row | SMILES | ligand-activated currents (HC e/n XVB cells; XV. B/ - EGF (differentiated)) | transient rise in intracellular calcium concentration (HNMMCV13.1.F) | transient rise in intracellular calcium concentration (HNMMCV11.2.0) | transient rise in intracellular calcium concentration (HNMMCV14.1.A [1]) | transient rise in intracellular calcium concentration (HNMMCV13.1.E) | further results
1 | Cc1onc(O)c1CC(N)C(=O)O (stereo not shown) [AMPA, ∝-amino-3-hydroxy-5-methyl-4-isoxazol-propionic acid] | + (+: 10-30% positive cells) | did not result in a transient rise in intracellular calcium concentrations | did not result in a transient rise in intracellular calcium concentrations | did not result in a transient rise in intracellular calcium concentrations | did not result in a transient rise in intracellular calcium concentrations | ligand induced inward currents (HC e/n XVB cells): evoked responses with different peak amplitudes; transient rise in intracellular calcium concentration (HC e/n XV.B cells; undifferentiated HC e/n XV.B cells, AMPA, kainate up to 1mM, NMDA up to 500µM): did not result in a transient rise in intracellular calcium concentrations
2 | CC(=O)OCC[N+](C)(C)C [Acetylcholine, acetylcholine] | - |  |  |  |  | ligand-activated currents (HNMMCV14.1.A [2]): + (+: 10-30% positive cells)
3 | N#Cc1cc2[nH]c(=O)c(=O)[nH]c2cc1[N+](=O)[O-] [CNQX, 6-nitro-7-cyanochinoxalin-2,3-dione] |  |  |  |  |  | antagonism of the calcium signals recorded after application of glutamate (HNMMCV13.1.F; glutamate 100µM, CNQX 100µM, cell clone taken from Table 5 (13.1.F)): not antagonised
4 | C[N+](C)(C)CCOC(N)=O [Carbachol] |  | not in any other cell line tested | not in any other cell line tested |  | not in any other cell line tested | transient rise in intracellular calcium concentration (HC e/n XV.B cells; [4]): reproducible signal
5 | NCCc1ccc(O)c(O)c1 [Dopamine, dopamine] |  | did not lead to a specific signal | did not lead to a specific signal | did not lead to a specific signal | did not lead to a specific signal | transient rise in intracellular calcium concentration (HC e/n XV.B cells; [4]): did not lead to a specific signal
6 | NCCCC(=O)O [GABA] | +++ (+++: 70-100% positive cells) |  |  |  |  | reversal potential of the ligand-activated current (HC e/n XVB cells; HC e/n XVB cells, membrane stepped from -100 to +40): ~+10 mV; ligand-activated currents (HC e/n XVB cells; XV. B (with EGF, undifferentiated)): + (+: 10-30% positive cells); ligand induced inward currents (HC e/n XVB cells): prominent resonses; ligand-activated currents (HNMMCV14.1.A [2]): ++ (++: 30-70% positive cells)
7 | N[C@H](C(=O)O)[C@H]1C[C@@H]1C(=O)O [L-CCG 1, L-carboxycyclopropylglycin] |  | strong | strong | strong | strong | transient rise in intracellular calcium concentration (HC e/n XV.B cells; [5]): weak signals
8 | CN[C@H](CC(=O)O)C(=O)O [NMDA, N-methyl-D-aspartate] | ++ (++: 30-70% positive cells) |  |  |  |  | 
9 | N[C@@H](Cn1oc(=O)[nH]c1=O)C(=O)O [Quisqualate, quisqualate] |  |  |  |  |  | maximum responses (inositolphosphate accumulation) compared with glutamate ([3]; HNMMCV14.1A cells): slightly weaker; effect on inositolphosphate accumulation [3, 6]: concentration dependent increase
10 | NCCc1c[nH]c2ccc(O)cc12 [Serotonine] |  | did not lead to a specific signal | did not lead to a specific signal | did not lead to a specific signal | did not lead to a specific signal | transient rise in intracellular calcium concentration (HC e/n XV.B cells; [4]): did not lead to a specific signal
11 | NC(C(=O)O)c1cc(O)no1 (stereo not shown) [ibotenate] |  |  |  |  |  | effect on inositolphosphate accumulation [3]: concentration dependent increase; maximum responses (inositolphosphate accumulation) compared with glutamate [3]: slightly weaker
12 | N[C@@]1(C(=O)O)CC[C@@H](C(=O)O)C1 [t-ACPD, 1S3R-aminocyclopentane-1,3-dicarboxylate] |  | strong | strong | strong | strong | transient rise in intracellular calcium concentration (HC e/n XV.B cells; [5]): weak signals; maximum responses (inositolphosphate accumulation) compared with glutamate ([3]; HNMMCV14.1A cells): slightly weaker; effect on inositolphosphate accumulation [3, 6]: concentration dependent increase
